Data: ChEMBL document CHEMBL5303573, “Mapping human microbiome drug metabolism by gut bacteria and their genes” (Nature, 2019)

Test: The drug is tested on Odoribacter splanchnicus strain: fecal isolate for biotransformation. The drug concentrations were measured before and after a 12-h incubation by liquid-chromatography-coupled mass spectrometry (LC–MS)
Conditions: 2 µM

SMILES | Bacterial Biotransformation
CCCc1nn(C)c2c(=O)[nH]c(-c3cc(S(=O)(=O)N4CCN(C)CC4)ccc3OCC)nc12.O=C(O)CC(O)(CC(=O)O)C(=O)O [SILDENAFIL CITRATE] | Compound metabolized
CC(C)c1nc(CN(C)C(=O)N[C@H](C(=O)N[C@@H](Cc2ccccc2)C[C@H](O)[C@H](Cc2ccccc2)NC(=O)OCc2cncs2)C(C)C)cs1 [RITONAVIR] | Compound metabolized

Test: The drug is tested on Ruminococcus lactaris strain: ATCC29176 for biotransformation. The drug concentrations were measured before and after a 12-h incubation by liquid-chromatography-coupled mass spectrometry (LC–MS)
Conditions: 2 µM

SMILES | Bacterial Biotransformation
CCCc1nn(C)c2c(=O)[nH]c(-c3cc(S(=O)(=O)N4CCN(C)CC4)ccc3OCC)nc12.O=C(O)CC(O)(CC(=O)O)C(=O)O [SILDENAFIL CITRATE] | Compound NOT metabolized
CC(C)c1nc(CN(C)C(=O)N[C@H](C(=O)N[C@@H](Cc2ccccc2)C[C@H](O)[C@H](Cc2ccccc2)NC(=O)OCc2cncs2)C(C)C)cs1 [RITONAVIR] | Compound NOT metabolized

Test: The drug is tested on Bacteroides xylanisolvens strain: DSM18836 for biotransformation. The drug concentrations were measured before and after a 12-h incubation by liquid-chromatography-coupled mass spectrometry (LC–MS)
Conditions: 2 µM

SMILES | Bacterial Biotransformation
CCCc1nn(C)c2c(=O)[nH]c(-c3cc(S(=O)(=O)N4CCN(C)CC4)ccc3OCC)nc12.O=C(O)CC(O)(CC(=O)O)C(=O)O [SILDENAFIL CITRATE] | Compound metabolized
CC(C)c1nc(CN(C)C(=O)N[C@H](C(=O)N[C@@H](Cc2ccccc2)C[C@H](O)[C@H](Cc2ccccc2)NC(=O)OCc2cncs2)C(C)C)cs1 [RITONAVIR] | Compound metabolized

Conditions: roseburia intestinalis, 12 h, 2 µM
Description: The drug is tested on Roseburia intestinalis strain: L1-82 for biotransformation. The drug concentrations were measured before and after a 12-h incubation by liquid-chromatography-coupled mass spectrometry (LC–MS)

SMILES | Bacterial Biotransformation
CCCc1nn(C)c2c(=O)[nH]c(-c3cc(S(=O)(=O)N4CCN(C)CC4)ccc3OCC)nc12.O=C(O)CC(O)(CC(=O)O)C(=O)O [SILDENAFIL CITRATE] | Compound NOT metabolized
CC(C)c1nc(CN(C)C(=O)N[C@H](C(=O)N[C@@H](Cc2ccccc2)C[C@H](O)[C@H](Cc2ccccc2)NC(=O)OCc2cncs2)C(C)C)cs1 [RITONAVIR] | Compound NOT metabolized

Test: The drug is tested on Ruminococcus torques strain: ATCC27756 for biotransformation. The drug concentrations were measured before and after a 12-h incubation by liquid-chromatography-coupled mass spectrometry (LC–MS)
Assay type: ADME
Design: dose 2 uM, timepoint 0 vs 12 hours
Conditions: 2 µM

SMILES | Bacterial Biotransformation
CCCc1nn(C)c2c(=O)[nH]c(-c3cc(S(=O)(=O)N4CCN(C)CC4)ccc3OCC)nc12.O=C(O)CC(O)(CC(=O)O)C(=O)O [SILDENAFIL CITRATE] | Compound NOT metabolized
CC(C)c1nc(CN(C)C(=O)N[C@H](C(=O)N[C@@H](Cc2ccccc2)C[C@H](O)[C@H](Cc2ccccc2)NC(=O)OCc2cncs2)C(C)C)cs1 [RITONAVIR] | Compound NOT metabolized

Test: The drug is tested on Providencia rettgeri strain: DSM1131 for biotransformation. The drug concentrations were measured before and after a 12-h incubation by liquid-chromatography-coupled mass spectrometry (LC–MS)
Assay type: ADME
Design: dose 2 uM, timepoint 0 vs 12 hours
Conditions: 2 µM

SMILES | Bacterial Biotransformation
CC(C)c1nc(CN(C)C(=O)N[C@H](C(=O)N[C@@H](Cc2ccccc2)C[C@H](O)[C@H](Cc2ccccc2)NC(=O)OCc2cncs2)C(C)C)cs1 [RITONAVIR] | Compound NOT metabolized

Test: The drug is tested on Eubacterium ventriosum strain: ATCC27560 for biotransformation. The drug concentrations were measured before and after a 12-h incubation by liquid-chromatography-coupled mass spectrometry (LC–MS)
Assay type: ADME
Design: dose 2 uM, timepoint 0 vs 12 hours
Conditions: 2 µM

SMILES | Bacterial Biotransformation
CCCc1nn(C)c2c(=O)[nH]c(-c3cc(S(=O)(=O)N4CCN(C)CC4)ccc3OCC)nc12.O=C(O)CC(O)(CC(=O)O)C(=O)O [SILDENAFIL CITRATE] | Compound NOT metabolized
CC(C)c1nc(CN(C)C(=O)N[C@H](C(=O)N[C@@H](Cc2ccccc2)C[C@H](O)[C@H](Cc2ccccc2)NC(=O)OCc2cncs2)C(C)C)cs1 [RITONAVIR] | Compound NOT metabolized

Test: The drug is tested on Dorea formicigenerans strain: ATCC27755 for biotransformation. The drug concentrations were measured before and after a 12-h incubation by liquid-chromatography-coupled mass spectrometry (LC–MS)
Conditions: 2 µM

SMILES | Bacterial Biotransformation
CCCc1nn(C)c2c(=O)[nH]c(-c3cc(S(=O)(=O)N4CCN(C)CC4)ccc3OCC)nc12.O=C(O)CC(O)(CC(=O)O)C(=O)O [SILDENAFIL CITRATE] | Compound NOT metabolized
CC(C)c1nc(CN(C)C(=O)N[C@H](C(=O)N[C@@H](Cc2ccccc2)C[C@H](O)[C@H](Cc2ccccc2)NC(=O)OCc2cncs2)C(C)C)cs1 [RITONAVIR] | Compound NOT metabolized

Test: The drug is tested on Clostridium sporogenes strain: ATCC15579 for biotransformation. The drug concentrations were measured before and after a 12-h incubation by liquid-chromatography-coupled mass spectrometry (LC–MS)
Conditions: 2 µM

SMILES | Bacterial Biotransformation
CC(C)c1nc(CN(C)C(=O)N[C@H](C(=O)N[C@@H](Cc2ccccc2)C[C@H](O)[C@H](Cc2ccccc2)NC(=O)OCc2cncs2)C(C)C)cs1 [RITONAVIR] | Compound NOT metabolized

Test: The drug is tested on Enterococcus faecalis strain: V583 for biotransformation. The drug concentrations were measured before and after a 12-h incubation by liquid-chromatography-coupled mass spectrometry (LC–MS)
Conditions: 2 µM

SMILES | Bacterial Biotransformation
CCCc1nn(C)c2c(=O)[nH]c(-c3cc(S(=O)(=O)N4CCN(C)CC4)ccc3OCC)nc12.O=C(O)CC(O)(CC(=O)O)C(=O)O [SILDENAFIL CITRATE] | Compound NOT metabolized
CC(C)c1nc(CN(C)C(=O)N[C@H](C(=O)N[C@@H](Cc2ccccc2)C[C@H](O)[C@H](Cc2ccccc2)NC(=O)OCc2cncs2)C(C)C)cs1 [RITONAVIR] | Compound NOT metabolized

Test: The drug is tested on Bacteroides fragilis strain: HMW615 for biotransformation. The drug concentrations were measured before and after a 12-h incubation by liquid-chromatography-coupled mass spectrometry (LC–MS)
Conditions: 2 µM

SMILES | Bacterial Biotransformation
CCCc1nn(C)c2c(=O)[nH]c(-c3cc(S(=O)(=O)N4CCN(C)CC4)ccc3OCC)nc12.O=C(O)CC(O)(CC(=O)O)C(=O)O [SILDENAFIL CITRATE] | Compound NOT metabolized

Conditions: segatella copri, 12 h, 2 µM
Description: The drug is tested on Prevotella copri strain: DSM18205 for biotransformation. The drug concentrations were measured before and after a 12-h incubation by liquid-chromatography-coupled mass spectrometry (LC–MS)

SMILES | Bacterial Biotransformation
CCCc1nn(C)c2c(=O)[nH]c(-c3cc(S(=O)(=O)N4CCN(C)CC4)ccc3OCC)nc12.O=C(O)CC(O)(CC(=O)O)C(=O)O [SILDENAFIL CITRATE] | Compound NOT metabolized
CC(C)c1nc(CN(C)C(=O)N[C@H](C(=O)N[C@@H](Cc2ccccc2)C[C@H](O)[C@H](Cc2ccccc2)NC(=O)OCc2cncs2)C(C)C)cs1 [RITONAVIR] | Compound NOT metabolized

Test: The drug is tested on Bifidobacterium ruminantium strain: fecal isolate for biotransformation. The drug concentrations were measured before and after a 12-h incubation by liquid-chromatography-coupled mass spectrometry (LC–MS)
Conditions: 2 µM

SMILES | Bacterial Biotransformation
CC(C)c1nc(CN(C)C(=O)N[C@H](C(=O)N[C@@H](Cc2ccccc2)C[C@H](O)[C@H](Cc2ccccc2)NC(=O)OCc2cncs2)C(C)C)cs1 [RITONAVIR] | Compound NOT metabolized

Conditions: akkermansia muciniphila, 12 h, 2 µM
Description: The drug is tested on Akkermansia muciniphila strain: ATCC BAA-835 for biotransformation. The drug concentrations were measured before and after a 12-h incubation by liquid-chromatography-coupled mass spectrometry (LC–MS)

SMILES | Bacterial Biotransformation
CCCc1nn(C)c2c(=O)[nH]c(-c3cc(S(=O)(=O)N4CCN(C)CC4)ccc3OCC)nc12.O=C(O)CC(O)(CC(=O)O)C(=O)O [SILDENAFIL CITRATE] | Compound NOT metabolized
CC(C)c1nc(CN(C)C(=O)N[C@H](C(=O)N[C@@H](Cc2ccccc2)C[C@H](O)[C@H](Cc2ccccc2)NC(=O)OCc2cncs2)C(C)C)cs1 [RITONAVIR] | Compound NOT metabolized

Test: The drug is tested on Alistipes indistinctus strain: DSM22520 for biotransformation. The drug concentrations were measured before and after a 12-h incubation by liquid-chromatography-coupled mass spectrometry (LC–MS)
Conditions: 2 µM

SMILES | Bacterial Biotransformation
CCCc1nn(C)c2c(=O)[nH]c(-c3cc(S(=O)(=O)N4CCN(C)CC4)ccc3OCC)nc12.O=C(O)CC(O)(CC(=O)O)C(=O)O [SILDENAFIL CITRATE] | Compound NOT metabolized
CC(C)c1nc(CN(C)C(=O)N[C@H](C(=O)N[C@@H](Cc2ccccc2)C[C@H](O)[C@H](Cc2ccccc2)NC(=O)OCc2cncs2)C(C)C)cs1 [RITONAVIR] | Compound NOT metabolized

Test: The drug is tested on Bacteroides uniformis strain: ATCC8492 for biotransformation. The drug concentrations were measured before and after a 12-h incubation by liquid-chromatography-coupled mass spectrometry (LC–MS)
Conditions: 2 µM

SMILES | Bacterial Biotransformation
CCCc1nn(C)c2c(=O)[nH]c(-c3cc(S(=O)(=O)N4CCN(C)CC4)ccc3OCC)nc12.O=C(O)CC(O)(CC(=O)O)C(=O)O [SILDENAFIL CITRATE] | Compound NOT metabolized
CC(C)c1nc(CN(C)C(=O)N[C@H](C(=O)N[C@@H](Cc2ccccc2)C[C@H](O)[C@H](Cc2ccccc2)NC(=O)OCc2cncs2)C(C)C)cs1 [RITONAVIR] | Compound metabolized

Test: The drug is tested on Bacteroides vulgatus strain: ATCC8482 for biotransformation. The drug concentrations were measured before and after a 12-h incubation by liquid-chromatography-coupled mass spectrometry (LC–MS)
Conditions: phocaeicola vulgatus, 2 µM

SMILES | Bacterial Biotransformation
CCCc1nn(C)c2c(=O)[nH]c(-c3cc(S(=O)(=O)N4CCN(C)CC4)ccc3OCC)nc12.O=C(O)CC(O)(CC(=O)O)C(=O)O [SILDENAFIL CITRATE] | Compound NOT metabolized
CC(C)c1nc(CN(C)C(=O)N[C@H](C(=O)N[C@@H](Cc2ccccc2)C[C@H](O)[C@H](Cc2ccccc2)NC(=O)OCc2cncs2)C(C)C)cs1 [RITONAVIR] | Compound metabolized

Conditions: anaerostipes sp., 12 h, 2 µM
Description: The drug is tested on Anaerostipes sp. strain: fecal isolate for biotransformation. The drug concentrations were measured before and after a 12-h incubation by liquid-chromatography-coupled mass spectrometry (LC–MS)

SMILES | Bacterial Biotransformation
CCCc1nn(C)c2c(=O)[nH]c(-c3cc(S(=O)(=O)N4CCN(C)CC4)ccc3OCC)nc12.O=C(O)CC(O)(CC(=O)O)C(=O)O [SILDENAFIL CITRATE] | Compound NOT metabolized
CC(C)c1nc(CN(C)C(=O)N[C@H](C(=O)N[C@@H](Cc2ccccc2)C[C@H](O)[C@H](Cc2ccccc2)NC(=O)OCc2cncs2)C(C)C)cs1 [RITONAVIR] | Compound NOT metabolized

Test: The drug is tested on Blautia hansenii strain: DSM20583 for biotransformation. The drug concentrations were measured before and after a 12-h incubation by liquid-chromatography-coupled mass spectrometry (LC–MS)
Conditions: 2 µM

SMILES | Bacterial Biotransformation
CCCc1nn(C)c2c(=O)[nH]c(-c3cc(S(=O)(=O)N4CCN(C)CC4)ccc3OCC)nc12.O=C(O)CC(O)(CC(=O)O)C(=O)O [SILDENAFIL CITRATE] | Compound metabolized
CC(C)c1nc(CN(C)C(=O)N[C@H](C(=O)N[C@@H](Cc2ccccc2)C[C@H](O)[C@H](Cc2ccccc2)NC(=O)OCc2cncs2)C(C)C)cs1 [RITONAVIR] | Compound metabolized
